Measurements as given in patent US20030039580A1, “Stable preservative formulations comprising halopropynyl compounds and butoxydiglycol solvent” (Lonza Inc., priority 2001, published 2003).

How the values were obtained:
[1] = test system: mixed fungi, comprising A. niger (ATCC 16404) and C. albicans (ATCC 10231); assay: Inhibition of mixed fungi by propynyl compound solutions in protein shampoo (Example 2); assay type: cell-based; details: Table 3, 500 ppm in protein shampoo (GPL 1000 ppm), solvent butoxydiglycol (A, E) or butylene glycol (B, C, D)
Description: (§1) Each of the samples A to E is a protein shampoo comprising a propynyl compound. The samples were tested for antibacterial and antifungal properties by testing for inhibition of a mixed bacteria, comprising E. coli (ATCC 8739), P. aeruginosa (ATCC 9027), and S. aureus (ATCC 6538), and inhibition of a mixed fungi, comprising A. niger (ATCC 16404) and C. albicans (ATCC 10231).
(§2) The samples “GPL” and “NP” are controls. “GPL” is 0. 1% Glydantg Plus, a liquid antimicrobial preservative available from Lonza Inc., Fair Lawn, N.J., containing a dimethyol dimethyl hydantoin formaldehyde donor. Glydant® Plus is used in personal care formulations in cosmetics and personal care products.
(§3) In Table 3, samples A and E consist of an iodopropynyl compound in a butoxydiglycol solvent. Samples C and D consist of an iodopropynyl compound in a butylene glycol solvent, and Sample B consists of a propynyl compound in a butylene glycol solvent.

[2] = Solubility testing of propynyl compounds in solvents; assay type: physicochemical; details: for Solubility in Butanediol Anhydrous: solvent Butanediol Anhydrous; for Solubility in Butoxydiglycol: solvent Butoxydiglycol; for Solubility in Sorbitol: solvent Sorbitol
Source text: The compounds used in Example 1 are identified below in Table 1. The results of the solubility testing is shown below in Table 2.

[3] = test system: mixed bacteria, comprising E. coli (ATCC 8739), P. aeruginosa (ATCC 9027), and S. aureus (ATCC 6538); assay: Inhibition of mixed bacteria by propynyl compound solutions in protein shampoo (Example 2); assay type: cell-based; details: Table 3, 500 ppm in protein shampoo (GPL 1000 ppm), solvent butoxydiglycol (A, E) or butylene glycol (B, C, D)
Description: as §1, §2, §3

[4] = test system: Burkholderia cepacia; assay: Minimum inhibitory concentration, IPBC and butoxydiglycol in protein shampoo (Example 4); assay type: cell-based
Description: Sample protein shampoos I, J and K were formed. Sample I contained only IPBC. Sample J contained only butoxydiglycol. Sample K contained both IPBC and butoxydiglycol. […] Synergism for the IPBC/butoxydiglycol studies in Table 5 was calculated by the method described in C. E. Kull et al., “Mixtures of Quaternary Ammonium Compounds and Long-Chain Fatty Acids as Antifungal Agents”, Applied Microbiology, 4:538-541(1961). The Kull method determines the quantity of each component in a mixture which is required to reach a given microbiological endpoint (e.g., MIC), and compares that amount with the quantity of the pure component necessary to reach the same endpoint. According to this method, a synergism index or value QA/QB+Qa/Qb is determined, wherein: […]

[5] = test system: Fungi; assay: Antifungal screening of propynyl compositions in protein shampoo formulations (Example 3); assay type: cell-based; details: Table 4, 500 ppm in protein shampoo pH 7.0 (GPL 1000 ppm), solvent butoxydiglycol (A, H) or butylene glycol (F, G)
Source text: (§4) Samples of a standard protein shampoo (pH-7.0) were formed. The shampoo contained the following preservative-free ingredients, w/w % Samples A, […] and H contained active preservative iodopropynyl agents in a solvent. Samples A and H contained butoxydiglycol as the solvent. Samples F and G (containing a propynyl compound rather than a halopropynyl compound) contained butylene glycol as the solvent.

[6] = test system: Bacteria; assay: Antibacterial screening of propynyl compositions in protein shampoo formulations (Example 3); assay type: cell-based; details: Table 4, 500 ppm in protein shampoo pH 7.0 (GPL 1000 ppm), solvent butoxydiglycol (A, H) or butylene glycol (F, G)
Source text: as §4

Row | Compound | DAY 0 Fungi (cfu/ml) [1] | DAY 14 Fungi (cfu/ml) [1] | DAY 28 Fungi (cfu/ml) [1] | Solubility in Butanediol Anhydrous [2] | Solubility in Butoxydiglycol [2] | Solubility in Sorbitol [2] | DAY 0 Bacteria (cfu/ml) [3] | DAY 14 Bacteria (cfu/ml) [3] | DAY 28 Bacteria (cfu/ml) [3] | MIC ([4]; Burkholderia cepacia, single active alone in protein shampoo, complete inhibition of growth, read-out: MIC, ppm active) | Concentration (ppm) QB ([4]; Table 6, parameter MIC) | Concentration (ppm) QA ([4]; Table 6, parameter MIC) | MIC, ppm active ([4]; single active alone in protein shampoo, complete inhibition of growth) | DAY 0 Fungi (cfu/ml) [5] | DAY 14 Fungi (cfu/ml) [5] | DAY 28 Fungi (cfu/ml) [5] | DAY 0 Bacteria (cfu/ml) [6] | DAY 14 Bacteria (cfu/ml) [6] | DAY 28 Bacteria (cfu/ml) [6]
1 | Cc1ccc(C(Cn2ccnc2)OCC#CI)cc1 (centres unmarked) [Compound L103, 2-(1-imidazolyl)-1-(4-methylphenyl)ethyl iodopropargyl ether] | 1.00 × 10^5 cfu/ml | 500 cfu/ml | 400 cfu/ml | − | + | − | 7.00 × 10^6 cfu/ml | <10 cfu/ml | <10 cfu/ml |  |  |  |  |  |  |  |  |  | 
2 | O=C(C#CI)c1ccc(C(F)(F)F)cc1 [Compound L74, 3-iodo-1-(4-trifluoromethylphenyl)-2-propyn-1-one] | 1.00 × 10^5 cfu/ml | <10 cfu/ml | >10^3 cfu/ml | + | + |  | 8.00 × 10^6 cfu/ml | >3.0 × 10^3 cfu/ml | >10^3 cfu/ml |  |  |  |  |  |  |  |  |  | 
3 | CCCCOCCOCCO [Butoxydiglycol, 2-(2-butoxyethoxy)ethanol] |  |  |  |  |  |  |  |  |  | 12.5 mg/mL | 12,500 ppm |  |  |  |  |  |  |  | 
4 | CCCCNC(=O)OCC#CI [IPBC, 3-iodo-2-propynyl butyl carbamate] |  |  |  |  |  |  |  |  |  |  |  | 1,250 ppm | 1,250 ppm |  |  |  |  |  | 
5 | OC(C#CI)c1ccc(Cl)s1 (centres unmarked) [Compound L100] |  |  |  |  |  |  |  |  |  |  |  |  |  | 1.00 × 10^5 cfu/ml | <10 cfu/ml | <10 cfu/ml | 8.00 × 10^6 cfu/ml | 2.00 × 10^1 cfu/ml | 200 cfu/ml
6 | O=c1c(Cl)cn(CC#CI)c(=O)n1CC#CI [Compound L58, 1N,3N-Diiodopropyn-2-yl-5-chlorouracil] | 1.00 × 10^5 cfu/ml | <10 cfu/ml | <10 cfu/ml | − | + |  | 8.00 × 10^6 cfu/ml | <10 cfu/ml | <10 cfu/ml |  |  |  |  | 1.00 × 10^5 cfu/ml | <10 cfu/ml | <10 cfu/ml | 9.00 × 10^6 cfu/ml | <10 cfu/ml | <10 cfu/ml
7 | O=C(O)CCOCC#CI [Compound L111, Iodopropynyloxypropionic Acid] |  |  |  |  |  |  |  |  |  |  |  |  |  | 8.00 × 10^6 cfu/ml | <10 cfu/ml | <10 cfu/ml | 8.00 × 10^6 cfu/ml | <10 cfu/ml | <10 cfu/ml
8 | C#CC(=O)c1ccc(C#N)cc1 [Compound L106, 1-(4-cyanophenyl)-2-propyn-1-one] |  |  |  | + | + | − |  |  |  |  |  |  |  | 1.00 × 10^5 cfu/ml | >1.0 × 10^3 cfu/ml | 100 cfu/ml | 8.00 × 10^6 cfu/ml | >1.0 × 10^4 cfu/ml | <10 cfu/ml
9 | OC(C#CI)c1cccs1 (centres unmarked) [Compound L90, 2-(3-iodo-2-propyn-1-ol-yl) thiophene] | 1.00 × 10^5 cfu/ml | <10 cfu/ml | >10^3 cfu/ml | + | + | − | 7.00 × 10^6 cfu/ml | >3.0 × 10^3 cfu/ml | >10^3 cfu/ml |  |  |  |  |  |  |  |  |  | 
